Data on 3 substances can be found in US20240082342A1, “PEPTIDE THERAPEUTICS FOR INCREASING LUNG CELL VIABILITY” (BOARD OF REGENTS, THE UNIVERSITY OF TEXAS SYSTEM, priority 2018, published 2024).

The conditions of data set [1]: mice; cited from earlier work.
Data set [2] relates to A2ECs treated with IL-17A. The data set is described as follows: A2ECs exposed to IL-17A in vitro. Type of data set: cell-based, mouse. The following applies: for IL-17A-induced p53 and PAI-1 expression, and apoptosis: A2ECs from WT mice, IL-17A 100 ng/ml. The procedure: FIGS. 49A-49B show the role of IL-17A in PTS-induced p53, PAI-1 expression, and apoptosis in A2ECs. (A) IL-17A^−/− mice resist PTS-induced p53 expression and apoptosis in A2ECs. Mice were kept in ambient AIR or exposed to 20 weeks of PTS. A2ECs isolated from WT and IL-17A^−/− mice in AIR or exposed to PTS were analyzed for acetylated/total p53, Sirt1 and activated caspase-3 to assess apoptosis by Western blotting. (B) CSP inhibits IL-17A-induced p53 and PAI-1 expression and apoptosis in A2ECs in vitro. A2ECs isolated from WT mice were treated with PBS or IL-17A (100 ng/ml) in the presence or absence of CSP or control peptide, CP for 24 h in culture dishes. A2EC lysates were immunoblotted for p53, PAI-1, Cl./total caspase-3 and β-actin. WT mice exposed to IL-17A (FIG. 48D) and PTS (FIG. 46A) induce p53 acetylation and Cav1 expression, while inhibiting Sirt1 in A2ECs.
FIGS. 58A-58B show a 7-amino acid fragment of CSP, CSP7 Inhibits IL-17A-induced A2EC apoptosis. (A) Fragments of CSP were synthesized as shown. (B) A2ECs were treated with CSP or its fragments, or CP, 2 h after exposure of cells to IL-17A. A2EC lysates were immunoblotted for acetylated/total p53 and active/total caspase-3 24 h after IL-17A exposure. β-actin levels were evaluated to assess equal loading.
Increased p53 and apoptosis in A2ECs of mice exposed to PTS or IL-17A provided evidence that PTS acts by increasing IL-17A. To confirm that increased IL-17A contributes to the induction of p53 and PAI-1 expression, and apoptosis in A2ECs during PTS-induced lung injury, IL-17A-deficient mice were exposed to 20 weeks of PTS and control mice were kept in ambient air. A2ECs were tested for p53^AC, p53 and Sirt1 expression, and apoptosis. The responses were compared with changes in A2ECs isolated from WT mice exposed to 20 weeks of PTS or AIR. There was marked induction of p53^AC and p53 levels, and apoptosis with parallel suppression of Sirt1 expression in WT mice exposed to 20 weeks of PTS. […] To confirm mitigation of PTS induced lung injury by CSP or CSP7 involves suppression of IL-17A-induced p53, PAI-1 and apoptosis, A2ECs isolated from WT mice were next treated with IL-17A (100 ng/ml) with or without CSP, CSP7 or CP. Control cells were treated with vehicle (PBS) alone. The A2EC lysates were tested for p53 and p53-mediated downstream induction of PAI-1, and apoptosis. […] Further, induction of miR-34a increased p53 and apoptosis in A2ECs without exposure to tobacco smoke, while inhibition of miR-34a using miR-34a antisense (miR-34a-AS) reduced cigarette smoke induced p53 expression and apoptosis. Results of both in vitro and in vivo experiments support an intricate link between miR-34a, p53^AC, p53 and p53-mediated induction of PAI-1 expression, and A2EC apoptosis during PTS lung injury.

Another data set has as its system WT mice with CS-LI. The experiment in a line: Chronic CS/TSE lung injury in WT mice treated by nebulization or IP injection. In kind it is in vivo, mouse.
For data set [3], the system named is A2Cs of WT mice with 8X-BLM-induced PF. The experiment in a line: Repeated bleomycin (8X-BLM) induced PF in WT mice, A2C telomere analyses. Type of data set: in vivo, mouse. The procedure:
To analyze the effect of BLM, mice were exposed to BLM (40 μg/20 g body weight) once per two week for 16 weeks. Control mice were exposed to normal saline. At 14th week the peptide treatment at a dosage of 30 μg/20 g body weight was initiated and continued on a daily basis for the next 14 days. At the end of the experiment, the mice were euthanized and used for the experiments.
To evaluate the effect of CSP7 against chronic BLM-induced PF, the mice were exposed to BLM (40 μg/20 g body weight) once every two weeks for 16 weeks as described elsewhere. (Tiwari et al, 2016). Control mice were exposed to normal saline. Fourteen weeks later the CSP7 at a dosage of 1.5 mg/kg body weight was administered by IP injection and continued daily basis for the next two weeks as described elsewhere. (Tiwari et al, 2016; Shetty et al, 2008b). At the end of the experiment, the mice were euthanized and lung tissues and isolated A2Cs from the extracted lung tissues were used for further analysis.
Detection of telomerase activity. Telomerase activity was detected using a PCR-based telomeric repeat amplification protocol (TRAP) method using the TRAPeze Telomerase Detection Kit (Intergen, Purchase, NY, USA). Briefly, the cells were lysed in CHAPS lysis buffer and quantified by BCA method, and equal quantity of the protein samples was combined with the reaction mix in RNase-free PCR tubes. The PCR amplification was then performed following instruction of the manufacturer. The final PCR product was loaded onto a 12.5% non-denaturing polyacrylamide gel and subjected to electrophoresis. The polyacrylamide gel was stained with ethidium bromide and documented using a gel-doc unit (Bio-Rad Laboratories). The relative quantities of telomerase activity for each sample were calculated according to the instructions provided in the kit.
Measurement of terminal restriction fragment (telomeric) length. For the determination of telomeric length, the TeloTTAGGG Telomere Length Assay Kit (Roche Diagnostics GmbH) was used. Briefly, genomic DNA was isolated and digested with Hinf1/Rsa. The digested DNA fragments were then separated by electrophoresis on agarose gel followed by Southern blot transfer. The membrane was then hybridized with a telomere specific digoxigenin (DIG)-labelled probe, incubated with anti-DIG alkaline phosphatase, and documented with chemiluminescence detection in gel-doc unit (Bio-Rad Laboratories). Telomeric length was identified by comparing with the pre-labelled molecular weight marker. The relative telomere length was calculated according to the protocol provided. In addition, relative telomere length was analyzed by qPCR analysis of the genomic DNA. (Cawthon, Nucleic Acids Res 2002, 30:e47-e47; Alder et al, Proc Natl Acad Sci USA 2015, 112:5099-5104.) The 36B4 gene was served as the control.

Entries after “also recorded” stand apart in the source; their conditions may differ.

On to “DGIWKASFTTFTVTKYWFYR (listed as Homo sapiens) [CSP, 20 residue caveolin-1 scaffolding domain peptide]”, for which the tolerability result in data set [1] is on record as “well-tolerated”. Moreover, the “IL-17A-induced p53 and PAI-1 expression, and apoptosis” value in data set [2] was “inhibited IL-17A-induced p53 and PAI-1 expression, and apoptosis”.
With “FTTFTVT (listed as Homo sapiens) [CSP7, heptapeptide fragment of the caveolin-1 scaffolding domain peptide CSP]”, the tolerability result in data set [1] is on record as “well-tolerated”. Further, the “Ac-Tub staining in tracheal sections” value with WT mice with CS-LI (20 weeks TSE/CS) was “reversed in CSP7 treated WT mice; also recorded: improved”. The “PAI-1 expression in AT2 cells” value in the data set with WT mice with CS-LI (CS-LI WT mice) is listed as “reduced”. Further, in the data set with WT mice with CS-LI (CS-LI WT mice, IP), the “total, acetylated, serine phosphorylated p53, cleaved caspase-3, β-galactosidase in AT2 cells” value was “markedly suppressed”. Also, in the data set on WT mice with CS-LI (CS-LI mice), the “MUC5AC and HDAC6 mRNA in TECs” value is recorded as “significantly reduced”; the “MUC5AC, HDAC6, FOXA3, CAV1 and FOXA2 mRNA in lung” value is “significant reduction in MUC5AC, HDAC6, FOXA3, and CAV1 mRNA”; the “PP2A and CIP2A mRNA in lung” value is “reversed”; the “macrophages in bronchoalveolar lavage” value is listed as “significantly reduced”. The “number of ciliated (Ac-Tub positive) tracheal epithelial cells” value in the data set with WT mice with CS-LI (MTEC/TECs isolated from treated mice) is listed as “reversal; also recorded: significantly reversed; also recorded: increased the number of ciliated TECs”. In the data set on WT mice with CS-LI (Neb and IP), the “H&E alveolar damage / mean linear intercept (MLI)” value is listed as “reversed; also recorded: significantly (P<0.0001) reduced”; the “IHC Ac-Tubulin, LC3 (and CAV1) in lung sections” value was “reversed in CSP7 (Neb and IP) treated WT mice”; the “IHC Cav1 expression in lung sections” value is “overcome”. In the data set on WT mice with CS-LI (Neb or IP), the “IHC MUC5AC and HDAC6 staining in lung sections” value is given as “reversed; also recorded: remarkably improved; also recorded: markedly reduced”; the “MUC5AC, HDAC6, SPDEF, LC3, FOXA2, Ac-tubulin in lung homogenates” value is “alleviated TSE MUC5AC and HDAC6 expression; also recorded: reversed”; the “co-localization of MUC5AC and HDAC6 in lung sections” value is on record as “reversed; also recorded: markedly reduced in those treated with CSP7”. Further, the “CAV1, p53 and PAI-1 in lung homogenates” value with WT mice with CS-LI (via airways or systemically) is “marked inhibition of CAV1, p53, and PAI-1”. Moreover, the “p53 and caspase-3 activation” value in data set [2] (A2ECs + IL-17A, CSP deletion fragments) is “inhibited p53 and caspase-3 activation”. The “IL-17A-induced p53 and PAI-1 expression, and apoptosis” value in data set [2] was “inhibited IL-17A-induced p53 and PAI-1 expression, and apoptosis”. Also, in data set [3] (8X-BLM PF), the TERT enzyme activity entry is listed as “significantly reversed”; the “TRF1, TRF2, PNUTS and TERT expression in A2Cs” value is listed as “reversed”; the “p53, PAI-1, SIAH1/2, caspase-3 activation, β-galactosidase in A2Cs” value is “suppression”. The “IHC of lung sections for TRF2, p53, PAI-1, TRF1” value in data set [3] (8X-BLM PF (FIG. 25E)) is “restoration of TRF2 expression with reduction in p53, PAI-1 and TRF1”. Besides, the “telomere length of A2Cs (qPCR)” value in data set [3] (8X-BLM PF, treated two weeks) is “improved”.
For “WGIDKAFFTTSTVTYKWFRY [CP, scrambled control peptide with the same amino acid composition as CSP, reference compound]”, the “H&E alveolar damage / mean linear intercept (MLI)” value in the data set on WT mice with CS-LI (Neb and IP) is given as “continued to show 479 alveolar damage”. For the same substance, in the data set on WT mice with CS-LI (Neb or IP), the “IHC MUC5AC and HDAC6 staining in lung sections” value is “not evident”; the “co-localization of MUC5AC and HDAC6 in lung sections” value was “Increased staining and co-localization”. Moreover, in data set [3] (8X-BLM PF), the TERT enzyme activity entry is on record as “still displayed shortened telomere”; the “TRF1, TRF2, PNUTS and TERT expression in A2Cs” value was “still harbor A2Cs with shortened telomere”.
